From patent US20230286973A1, “PROTEIN SECRETION INHIBITORS” (KEZAR LIFE SCIENCES, priority 2020, published 2023)

Key:
[1] = system: multiple myeloma cell line NCI-H929; assay: H929 Cell Viability Assay; type: cell-based, human; conditions: Homo sapiens, NCI-H929, 48 h, NCI-H929 cells, Celltiter-Glo
Outline: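 Luminescent CellTiter-Glo read-out of viability after a 48 h exposure (37° C, 5% CO2) of NCI-H929 myeloma cells to compound dilutions in RPMI 1640 plus 10% FBS. Data for structures drawn without stereochemistry refer to stereoisomer mixtures.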

[2] = system: PD1-ss+10aa/Gaussia Luciferase; assay: Dox-Induced PD1-ss-Gluc Assay; type: cell-based; conditions: 24 hr Dox induction; 293FRT/TO cells; read-out: 24 hr Dox Inducible PD1ssGluc 293FRT/TO: Mean IC50
Outline: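 Stable Flp-In 293 T-REx cells carried a doxycycline-inducible construct of Gaussia luciferase fused to the PD1 signal sequence plus 10 amino acids. Cells were plated the day before, then treated with compound dilutions in DMSO/media containing doxycycline at 37 °C, 5% CO2.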

[3] = Liver Microsome Stability Assay (human); conditions: human liver microsomes, with NADPH, 1.0 uM compound
Experimental: (§1) Stability of a compound was assessed in the presence of liver microsomes from various sources—mouse, rat, monkey and human liver microsomes. 1.0 uM compound, 0.4% DMSO in 0.1 M Potassium Phosphate with 1.0 mg/mL liver microsomes, were incubated at 37° C. with or without 1 mM NADPH. The samples were quenched at 0, and 30 minutes.

[4] = Liver Microsome Stability Assay (monkey); conditions: monkey liver microsomes, with NADPH, 1.0 uM compound
Experimental: as §1

[5] = Liver Microsome Stability Assay (rat); conditions: rat liver microsomes, with NADPH, 1.0 uM compound
Experimental: as §1

[6] = system: TNFα-FL/Gaussia Luciferase; assay: Dox Induced TNFα-FL-Gluc Assay; type: cell-based; conditions: for IC50: 24 hr Dox induction, 293FRT/TO cells, read-out: 24 hr Dox Inducible TNFaFLGluc 293FRT/TO: Mean IC50; for 24 hr Dox Inducible TNFaFLGluc 293FRT/TO: TNF/PD1: ratio of TNFaFLGluc IC50 to PD1ssGluc IC50
Outline: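 Compound was added with doxycycline to cells plated a day earlier, incubating at 37° C under 5% CO2. The reporter line is 293 T-REx expressing a TNFα (1-233)–Gaussia luciferase fusion under tetracycline-regulated control.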

[7] = Liver Microsome Stability Assay (mouse); conditions: mouse liver microsomes, with NADPH, 1.0 uM compound
Experimental: as §1

[8] = system: HER3-ss+4aa/Gaussia Luciferase; assay: Dox-Induced Her3-ss-Gluc Assay; type: cell-based; conditions: 24 hr Dox induction; 293FRT/TO cells; read-out: 24 hr Dox Inducible Her3(ss + 4)Gluc 293FRT/TO: Mean IC50
Outline: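 Compounds were diluted in DMSO/media containing doxycycline. They were added to Flp-In 293 T-REx cells plated the previous day, then incubated at 37 °C under 5% CO2. These cells stably express, under T-REx control, Gaussia luciferase fused to the HER3 signal sequence plus 4 amino acids.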

[9] = system: IL-2-FL/Gaussia Luciferase; assay: Dox Induced IL2-FL-Gluc Assay; type: cell-based; conditions: for IC50: 24 hr Dox induction, 293FRT/TO cells, read-out: 24 hr Dox Inducible IL2FLGluc 293FRT/TO: Mean IC50; for 24 hr Dox Inducible IL2FLGluc 293FRT/TO: IL2/PD1: ratio of IL2FLGluc IC50 to PD1ssGluc IC50
Outline: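 Compounds in DMSO/medium with doxycycline were applied to a 293 T-REx stable line expressing an IL-2 (aa 1-153)–Gaussia luciferase fusion under tetracycline-regulated control, cells seeded one day earlier; incubation at 37 °C, 5% CO2. Structures drawn without stereochemistry were tested as stereoisomer mixtures.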

[10] = system: multiple myeloma cell line U266B1; assay: U266 Cell Viability Assay; type: cell-based, human; conditions: Homo sapiens, U-266, 48 h, U266B1 cells, Celltiter-Glo
Outline: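 CellTiter-Glo luminescence was read after a 48 h compound exposure (37 °C, 5% CO2) of human U266B1 myeloma cells grown in 10% FBS-supplemented RPMI 1640. Data for structures shown without defined stereochemistry refer to stereoisomer mixtures.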

## CC1CCCc2c(/C=C/c3csc(NC(=O)c4cccn4Cc4ccnc(F)c4)n3)ncn21 (stereo not drawn) [Compound B101, (E)-1-((2-fluoropyridin-4-yl)methyl)-N-(4-(2-(5-methyl-5,6,7,8-tetrahydroimidazo[1,5-a]pyridin-1-yl)vinyl)thiazol-2-yl)-1H-pyrrole-2-carboxamide]
[1]
  EC50: 15.3 µM
[2]
  IC50: 0.0116 µM
[3]
  Liver Microsome Stability (Multiple Species): Human - % Remaining after 30 min w/NADPH: 0.38%
[4]
  Liver Microsome Stability (Multiple Species): Monkey - % Remaining after 30 min w/NADPH: 0.25%
[5]
  Liver Microsome Stability (Multiple Species): Rat - % Remaining after 30 min w/NADPH: 2.51%
[6]
  IC50: 19 µM
  24 hr Dox Inducible TNFaFLGluc 293FRT/TO: TNF/PD1: 1640
[7]
  Liver Microsome Stability (Multiple Species): Mouse - % Remaining after 30 min w/NADPH: 6.67%
[8]
  IC50: 4.28 µM
[9]
  IC50: 6.53 µM
  24 hr Dox Inducible IL2FLGluc 293FRT/TO: IL2/PD1: 560
[10]
  EC50: 19.5 µM

## CC1CCCn2cnc(/C=C/c3csc(NC(=O)c4cccn4Cc4ccnc(F)c4)n3)c21 (stereo not drawn) [Compound B102, (E)-1-((2-fluoropyridin-4-yl)methyl)-N-(4-(2-(8-methyl-5,6,7,8-tetrahydroimidazo[1,5-a]pyridin-1-yl)vinyl)thiazol-2-yl)-1H-pyrrole-2-carboxamide]
[1]
  EC50: 21.3 µM
[2]
  IC50: 0.0367 µM
[3]
  Liver Microsome Stability (Multiple Species): Human - % Remaining after 30 min w/NADPH: 0.71%
[4]
  Liver Microsome Stability (Multiple Species): Monkey - % Remaining after 30 min w/NADPH: 0.85%
[5]
  Liver Microsome Stability (Multiple Species): Rat - % Remaining after 30 min w/NADPH: 6.8%
[6]
  IC50: > 25 µM
  24 hr Dox Inducible TNFaFLGluc 293FRT/TO: TNF/PD1: >681
[7]
  Liver Microsome Stability (Multiple Species): Mouse - % Remaining after 30 min w/NADPH: 9.83%
[8]
  IC50: 4.56 µM
[9]
  IC50: 6.36 µM
  24 hr Dox Inducible IL2FLGluc 293FRT/TO: IL2/PD1: 170
[10]
  EC50: > 25 µM

## CC(C)n1cc(/C=C/c2csc(NC(=O)c3cccn3Cc3ccnc(F)c3)n2)nc1CO [Compound B103, (E)-1-((2-fluoropyridin-4-yl)methyl)-N-(4-(2-(2-(hydroxymethyl)-1-isopropyl-1H-imidazol-4-yl)vinyl)thiazol-2-yl)-1H-pyrrole-2-carboxamide]
[1]
  EC50: > 25 µM
[2]
  IC50: 10.1 µM
[3]
  Liver Microsome Stability (Multiple Species): Human - % Remaining after 30 min w/NADPH: 1.87%
[4]
  Liver Microsome Stability (Multiple Species): Monkey - % Remaining after 30 min w/NADPH: 1.64%
[5]
  Liver Microsome Stability (Multiple Species): Rat - % Remaining after 30 min w/NADPH: 19.5%
[6]
  IC50: > 25 µM
  24 hr Dox Inducible TNFaFLGluc 293FRT/TO: TNF/PD1: >2.49
[7]
  Liver Microsome Stability (Multiple Species): Mouse - % Remaining after 30 min w/NADPH: 28.7%
[8]
  IC50: > 25 µM
[9]
  IC50: > 25 µM
  24 hr Dox Inducible IL2FLGluc 293FRT/TO: IL2/PD1: >2.5
[10]
  EC50: > 25 µM

## O=C(Nc1nc(/C=C/c2cn(-c3ccccc3)cn2)cs1)c1cccn1Cc1ccnc(F)c1 [Compound B104, (E)-1-((2-fluoropyridin-4-yl)methyl)-N-(4-(2-(1-phenyl-1H-imidazol-4-yl)vinyl)thiazol-2-yl)-1H-pyrrole-2-carboxamide]
[1]
  EC50: > 25 µM
[2]
  IC50: 0.00616 µM
[3]
  Liver Microsome Stability (Multiple Species): Human - % Remaining after 30 min w/NADPH: 0.21%
[4]
  Liver Microsome Stability (Multiple Species): Monkey - % Remaining after 30 min w/NADPH: 0.14%
[5]
  Liver Microsome Stability (Multiple Species): Rat - % Remaining after 30 min w/NADPH: 2.24%
[6]
  IC50: 4.99 µM
  24 hr Dox Inducible TNFaFLGluc 293FRT/TO: TNF/PD1: 809
[7]
  Liver Microsome Stability (Multiple Species): Mouse - % Remaining after 30 min w/NADPH: 4.41%
[8]
  IC50: 0.785 µM
[9]
  IC50: 1.28 µM
  24 hr Dox Inducible IL2FLGluc 293FRT/TO: IL2/PD1: 210
[10]
  EC50: > 25 µM

## O=C(Nc1nc(/C=C/c2cn(Cc3ccccc3)cn2)cs1)c1cccn1Cc1ccnc(F)c1 [Compound B105, (E)-N-(4-(2-(1-benzyl-1H-imidazol-4-yl)vinyl)thiazol-2-yl)-1-((2-fluoropyridin-4-yl)methyl)-1H-pyrrole-2-carboxamide]
[1]
  EC50: > 25 µM
[2]
  IC50: 0.0238 µM
[3]
  Liver Microsome Stability (Multiple Species): Human - % Remaining after 30 min w/NADPH: 0.11%
[4]
  Liver Microsome Stability (Multiple Species): Monkey - % Remaining after 30 min w/NADPH: 0.05%
[5]
  Liver Microsome Stability (Multiple Species): Rat - % Remaining after 30 min w/NADPH: 2.65%
[6]
  IC50: > 25 µM
  24 hr Dox Inducible TNFaFLGluc 293FRT/TO: TNF/PD1: >1050
[7]
  Liver Microsome Stability (Multiple Species): Mouse - % Remaining after 30 min w/NADPH: 4.32%
[8]
  IC50: 2.24 µM
[9]
  IC50: 2.84 µM
  24 hr Dox Inducible IL2FLGluc 293FRT/TO: IL2/PD1: 120
[10]
  EC50: > 25 µM
